What all share (format): binding
The target in test [1] is T1, MD2 (myeloid differentiation protein 2) (Homo sapiens, UniProt Q9Y6Y9).
T1 sequence (Q9Y6Y9 19-160): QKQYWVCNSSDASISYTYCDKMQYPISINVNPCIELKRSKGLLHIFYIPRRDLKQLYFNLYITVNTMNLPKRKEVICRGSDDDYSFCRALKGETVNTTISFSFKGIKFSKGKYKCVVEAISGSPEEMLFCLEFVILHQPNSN
Nature of the test: quenching of MD2 intrinsic fluorescence.

Test [2] has as its target T1, MD2 (myeloid differentiation protein 2). Nature of the test: quenching of MD2 intrinsic fluorescence. The source holds these as a separate data set.
For test [3] the target is unchanged. Nature of the test: Bis-ANS-MD2 complex fluorescence, displaced by.

Molecules are shown by their SMILES. Where two headings read alike, the source gives them in different places.

The values below come from PMC3454463 (2012).

As for `C=CCN1CC[C@@]23c4c5ccc(O)c4O[C@@H]2C(=O)CC[C@]3(O)[C@@H]1C5` [(+)-naloxone], in test [1], the affinity, expressed as Kd, was 16.6 ± 4.7 µM. As for `C=CCN1CC[C@]23c4c5ccc(O)c4O[C@H]2C(=O)CC[C@@]3(O)[C@H]1C5` [(−)-naloxone], in test [2], the affinity, expressed as Kd, was 17.7 ± 3.2 µM. `O=S(=O)(O)c1cccc2c(-c3ccc(Nc4ccccc4)c4c(S(=O)(=O)O)cccc34)ccc(Nc3ccccc3)c12` [Bis-ANS]: the “Bis-ANS-MD2 complex fluorescence, displaced by (+)-naloxone” value in test [3] was “(+)-Naloxone decreased Bis-ANS-MD2 complex fluorescence, suggesting that (+)-naloxone replaces Bis-ANS binding to MD2”.

As usually defined, the Kd is the free concentration of one partner at which half of the binding sites on the other are occupied at equilibrium, for simple one-to-one binding. Low readings indicate tighter binding, high ones weaker binding.
